The results in this text go back to patent US20260324636A1, “COMPOSITION FOR PROVIDING PLANT WITH STRESS RESISTANCE” (KIRIN HOLDINGS KABUSHIKI KAISHA, priority 2022, published 2026).

The subject of one experiment is Arabidopsis thaliana. The experiment can be described thus: High-temperature stress resistance in liquid culture (leaf chlorosis, chlorophyll content), Example 1. Type of experiment: in vivo, Arabidopsis thaliana (Col-0). Particulars: for chlorosis of plants caused by the high-temperature treatment: 2 h before 44° C. for 60 minutes, then 22° C. 3 days; for chlorophyll content (fresh weight basis): 44° C. 60 minutes, vs group not subjected to the treatment. An excerpt:
A wild-type Arabidopsis thaliana strain (accession: Col-0) was used as an experimental material. Seeds were purchased from Inplanta Innovations Inc. (https://www.inplanta.jp/).
A liquid medium containing a ½ Murashige and Skoog Plant Salt Mixture (Nacalai) and 1 (w/v) % sucrose (FUJIFILM Wako) was used as a growth medium.
Arabidopsis thaliana seeds were sterilized with the use of a Kitchen Haiter® liquid (bleach for kitchen available from Kao Corporation) diluted to one-half concentration with distilled water for 3 minutes, washed 3 times with sterile distilled water, and then incubated at 4° C. overnight. The growth medium was dispensed at 1 ml/well on a 24-well microplate (IWAKI), 3 grains of the seeds were inoculated in each well, and the plate was transferred to the incubator (TOMY) to initiate growing. The incubator was maintained at a temperature of 22° C. for a daily cycle of 16 hours light and 8 hours darkness.
Before high-temperature treatment, a stock solution of N-acetylglutamic acid (Tokyo Chemical Industry Co., Ltd.) was added to Arabidopsis thaliana 7 days after seeding to the final concentration of 0, 0.01, 0.05, and 0.1 mM in the media, followed by incubation for 2 hours. Sterile distilled water was used as a solvent for the stock solution of N-acetylglutamic acid.
High-temperature treatment was performed with the use of an incubator. The plate was transferred to an incubator maintained at 44° C., incubated for 60 minutes to perform high-temperature treatment, and cultured in an incubator maintained at 22° C. for 3 days.
Plants are known to lose the green pigment chlorophyll from tissue such as leaves upon high-temperature stress exposure and become chlorotic as a consequence. Accordingly, the chlorophyll content was quantified after the high-temperature treatment to evaluate activity of N-acetylglutamic acid to enhance high-temperature stress resistance. The chlorophyll content was quantified in accordance with the method of Yamaguchi et al. (Nature Commun., Jun. 9, 2021, 12 [1]: 3480). To the collected plants, N,N-dimethylformamide (FUJIFILM Wako) was added at 1 ml/well, and incubation was performed at 4° C. in the dark overnight to extract the chlorophyll. Thereafter, the absorbance of the chlorophyll extract was measured at 647 nm (A647) and 664 nm (A664), respectively, using a microspectrophotometer (NanoPhotometer, Implen), and the chlorophyll content was calculated in accordance with the formula: 19.43×A647+8.05×A664. […] Thus, the chlorophyll content was calculated on a fresh weight basis to compare the chlorophyll content among samples.

In a further experiment the test system is ZAT12. Description: ZAT12 gene expression by real-time PCR, Example 11. As to conditions: Arabidopsis thaliana; 0.4 mM, 22° C. for 2 hours; read-out: ZAT12 expression level, increase vs control. It counts as in vivo. As to the method:
The materials as used in Example 1 were used.
The medium as used in Example 1 was used.
To the Arabidopsis thaliana plants grown for 7 days in the same manner as in Example 1, 0.4 mM N-acetylglutamic acid or an equivalent amount of sterile water was added, and the plants were incubated at 22° C. for 2 hours. After incubation for 2 hours, the samples were frozen with liquid nitrogen, and RNA was extracted using the RNeasy Plant Mini Kit […].
cDNA that would be necessary as a real-time PCR template was synthesized from the RNA obtained. 1000 ng total RNA was used for each sample, and cDNA was synthesized using the Verso cDNA Synthesis Kit (Thermo Fischer Scientific). The synthesized cDNA was diluted to 5-fold with sterile distilled water and subjected to real-time PCR. For real-time PCR, a reaction solution containing ZAT10 (AGI code: AT1G27730) and ZAT12 (AGI code: AT5G59820) as the target genes, PP2AA3 (AGI code: AT1G13320) as the reference gene, and TB Green Ex Taq II (TakaRa) was prepared. PCR was performed with the use of the LightCycler® 480 System (Roche) with the number of amplification cycles of 50. The primers shown below were used.
Thereafter, the relative expression levels of the target genes upon N-acetylglutamic acid treatment were calculated by the ΔΔCt method using the Cp values obtained by real-time PCR.
(In qPCR the cycle at which signal appears reflects the starting amount.)

The test system of another experiment is rice. Description: Oxidation stress resistance against methyl viologen in rice (leaf chlorosis, chlorophyll content), Example 9. It counts as in vivo, rice (variety: Nipponbare). Particulars: 0.5 mM, 2.5 μM methyl viologen, 30° C. 3 days. On the procedure:
A rice strain (the variety: Nipponbare) was used as an experimental material. Rice seeds were purchased from Nouken.
A Murashige and Skoog Plant Salt Mixture (2.2 g) was dissolved in 1 l of pure water, a pH was adjusted to 5.8, and the resultant was autoclaved (121° C., 20 minutes).
Seeds were sterilized by incubation with the use of a Kitchen Haiter® diluted to 2-fold with pure water for 20 minutes. The sterilized seeds were washed 3 times with sterile water, 30 grains of seeds were soaked in a 50-ml conical tube (Falcon) containing 10 ml of sterile water, and the seeds were cultured in an incubator maintained at 30° C. (16 hours light and 8 hours darkness) for 3 days to germinate the seeds.
After the seeds were incubated for 3 days, the growth medium was dispensed at 3 ml/well to the sterilized 12-well microplate (IWAKI), and the germinated seeds were seeded at 3 grains/well. To each well, 0.5 mM N-acetylglutamic acid or an equivalent amount of sterile water was added, and the seeds were incubated at 30° C. for 1 day. […]
Leaf chlorosis is observed in plants upon oxidation stress exposure. Thus, an extent of chlorosis was evaluated by measuring the content of the green pigment chlorophyll in leaves. […] The chlorophyll content was calculated in the same manner as in Example 1.

For the molecule `CC(=O)N[C@@H](CCC(=O)O)C(=O)O` [N-acetylglutamic acid], the “chlorosis of plants caused by the high-temperature treatment” value in the experiment on Arabidopsis thaliana (0.05 mM in medium) and in the experiment on Arabidopsis thaliana (0.1 mM in medium) was “suppressed” in each case. The “chlorophyll content (fresh weight basis)” value in the experiment with Arabidopsis thaliana (0.05 mM) and in the experiment on Arabidopsis thaliana (0.1 mM) was “significantly higher” throughout. In addition, the fold induction at 400 µM in the experiment with ZAT12 amounted to 37. The “leaf chlorosis in MV-treated group” value with rice was “substantially no leaf chlorosis was observed”. In the experiment on rice (second leaf, fresh weight basis), the “chlorophyll content of the MV-treated groups” value is listed as “increased”.
